Results from patent publication US7759367B2, “Pharmaceutical compositions and their uses” (Eisai R&D Management Co., Ltd., priority 2001, dated 2010).
Read-outs that look alike come from different tables or passages of the source.

System: AMPA receptor
[1] = primary culture of rat embryo cerebral cortex nerve cells, Fura2-AM, 2 μM AMPA, 1 μM MK-801
[2] = suppression of AMPA-induced calcium influx into nerve cells, Table 2
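Also: neurons cultured at least 8 to 10 days atop an astrocyte layer in 96-well plates, calcium entry read as the change in Fura2 fluorescence ratio at 340/380 nm excitation.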

Method: Cerebral cortex was cut out from the brain of rat of gestational 18 days and treated with trypsin and DNase to disperse the cells. The cells were flown by MEM containing 10% of serum, sown in a culture bottle and astrocytes were proliferated. The astrocytes were re-dispersed by trypsin and sown in a 96-well plate. After incubation for one week, it was confirmed that the astrocytes covered all over the bottom and then the nerve cells of cerebral cortex which was dispersed by the above method were sown thereupon. After incubation for 24 hours, the medium was changed, the incubation was carried out for one week and, after that, the medium was changed to that containing 1 μM of MK-801. Nerve cells which were incubated for not shorter than 8 to 10 days were used.
Calcium influx into the cells was measured using Fura2-AM which was a calcium-sensitive fluorescent dye. It was treated in a medium containing Fura2-AM for 1 hour, incorporated into the cells, exchanged to a Tyrode solution containing 1 μM MK-801 and stimulation was carried out using 2 μM AMPA. Change in the amount of calcium flown into the cells were measured as the change in the fluorescent intensity at the exciting wave length of 340/380 nm.

SMILES	IC50 [1]	IC50 [2]
CS(=O)(=O)Nc1cccc(-n2cc(-c3ccccn3)cc(-c3ccccc3C#N)c2=O)c1 [Example 10, 3-(2-Cyanophenyl)-5-(2-pyridyl)-1-(3-methylsulfonylaminophenyl)-1,2-dihydropyridin-2-one]	50 nM	
N#Cc1ccccc1-c1cc(-c2ccccn2)cn(-c2cccc(C=O)c2)c1=O [Example 20, 3-(2-Cyanophenyl)-5-(2-pyridyl)-1-(3-formylphenyl)-1,2-dihydropyridin-2-one]	40 nM	
N#Cc1cccnc1-c1cc(-c2ccccc2)cn(-c2cccnc2)c1=O [Example 79, 3-(3-Cyano-2-pyridyl)-5-phenyl-1-(3-pyridyl)-1,2-dihydropyridin-2-one]	2600 nM	
O=c1c(-c2ccc(Cl)cc2Cl)cc(-c2ccccn2)cn1-c1cccnc1 [Example 131, 3-(2,4-Dichlorophenyl)-5-(2-pyridyl)-1-(3-pyridyl)-1,2-dihydropyridin-2-one]	37000 nM	
O=c1c(C2C3CC4CC(C3)CC2C4)cc(-c2ccccn2)cn1-c1ccccc1 (stereo not shown) [Example 387, 3-(2-Adamantyl)-5-(2-pyridyl)-1-phenyl-1,2-dihydropyridin-2-one]	7000 nM	
N#CCc1cccc(-n2cc(-c3ccccn3)cc(-c3ccccc3C#N)c2=O)c1 [Example 22, 3-(2-Cyanophenyl)-5-(2-pyridyl)-1-(3-cyanomethylphenyl)-1,2-dihydropyridin-2-one]	60 nM	
N#Cc1ccccc1-c1cc(-c2ccccn2)cn(-c2cccc(OCCCN3CCCCC3)c2)c1=O [Example 244, 3-(2-Cyanophenyl)-1-(3-piperidinopropoxyphenyl)-5-(2-pyridyl)-1,2-dihydropyridin-2-one]		1800 nM
COc1ccc(-c2cc(-c3ccccc3C#N)c(=O)n(-c3ccccc3)c2)cn1 [Example 200, 3-(2-Cyanophenyl)-5-(2-methoxypyridin-5-yl)-phenyl-1,2-dihydropyridin-2-one]		2000 nM
COc1ccc(-n2cc(-c3ccccn3)cc(-c3cccnc3F)c2=O)cn1 [Example 86, 3-(2-Fluoro-3-pyridyl)-5-(2-pyridyl)-1-(2-methoxy-5-pyridyl)-1,2-dihydropyridin-2-one]	1900 nM	
N#Cc1ccccc1-c1cc(-c2ccccn2)c(=O)n(-c2ccccc2)c1 [Example 33, 3-(2-Pyridyl)-5-(2-cyanophenyl)-1-phenyl-1,2-dihydropyridin-2-one]	700 nM	
Cc1ccc(-n2cc(-c3ccccn3)cc(-c3ccccc3C#N)c2=O)cc1 [Example 107, 3-(2-Cyanophenyl)-5-(2-pyridyl)-1-(4-tolyl)-1,2-dihydropyridin-2-one]	70 nM	
COc1cncc(-n2cc(-c3ccccn3)cc(-c3ccccc3C#N)c2=O)c1 [Example 118, 3-(2-Cyanophenyl)-5-(2-pyridyl)-1-(3-methoxypyridin-5-yl)-1,2-dihydropyridin-2-one]	100 nM	
COc1cccc(-n2cc(-c3ccccn3)cc(-c3ccccc3C#N)c2=O)c1 [Example 96, 3-(2-Cyanophenyl)-5-(2-pyridyl)-1-(3-methoxyphenyl)-1,2-dihydropyridin-2-one]	60 nM	
O=c1c(-c2cccc3ccccc23)cc(-c2ccccn2)cn1-c1cccnc1 [Example 279, 3-(1-Naphthyl)-5-(2-pyridyl)-1-(3-pyridyl)-1,2-dihydropyridin-2-one]		3710 nM
CC1=NN=C(c2ccc(N)cc2)c2cc3c(cc2C1)OCO3 [GYKI 52466, reference compound]	9020 nM	
N#Cc1ccccc1-c1cc(-c2ccccn2)cn(-c2cccc([N+](=O)[O-])c2)c1=O [Example 8, 3-(2-Cyanophenyl)-5-(2-pyridyl)-1-(3-nitrophenyl)-1,2-dihydropyridin-2-one]	100 nM	

SMILES	IC50 [1]	IC50 [2]
CS(=O)(=O)c1ccc(-n2cc(-c3ccccn3)cc(-c3ccccc3C#N)c2=O)cc1 [Example 27, 3-(2-Cyanophenyl)-5-(2-pyridyl)-1-(4-methylsulfonylphenyl)-1,2-dihydropyridin-2-one]	50 nM	
CNc1cccc(-n2cc(-c3ccccn3)cc(-c3ccccc3C#N)c2=O)c1 [Example 11, 3-(2-Cyanophenyl)-5-(2-pyridyl)-1-(3-methylaminophenyl)-1,2-dihydropyridin-2-one]	60 nM	
O=c1c(-c2cccnc2F)cc(-c2ncccn2)cn1-c1cccnc1 [Example 263, 3-(2-Fluoropyridin-3-yl)-1-(3-pyridyl)-5-(2-pyrimidinyl)-1,2-dihydropyridin-2-one]		1000 nM
COc1ccc(-n2cc(-c3ccccn3)cc(-c3ccccc3C#N)c2=O)cn1 [Example 109, 3-(2-Cyanophenyl)-5-(2-pyridyl)-1-(2-methoxypyridin-5-yl)-1,2-dihydropyridin-2-one]	10 nM	
N#Cc1ccccc1-c1cc(-c2ccccn2)cn(-c2ccc(N)cc2)c1=O [Example 215, 1-(4-Aminophenyl)-3-(2-cyanophenyl)-5-(2-pyridyl)-1,2-dihydropyridin-2-one]		100 nM
CSc1ccc(-n2cc(-c3ccccn3)cc(-c3ccccc3C#N)c2=O)cc1 [Example 26, 3-(2-Cyanophenyl)-5-(2-pyridyl)-1(4-methylthiophenyl)-1,2-dihydropyridin-2-one]	20 nM	
CNC(=O)c1cccc(-n2cc(-c3ccccn3)cc(-c3ccccc3C#N)c2=O)c1 [Example 15, 3-(2-Cyanophenyl)-5-(2-pyridyl)-1-(3-methylaminocarbonylphenyl)-1,2-dihydropyridin-2-one]	50 nM	
N#Cc1ccccc1-c1cc(-c2ccccn2)cn(-c2cccc(F)c2)c1=O [Example 92, 3-(2-Cyanophenyl)-5-(2-pyridyl)-1-(3-fluorophenyl)-1,2-dihydropyridin-2-one]	50 nM	
COc1ccc(-c2cc(-c3ccccn3)cn(-c3ccccc3)c2=O)cn1 [Example 77, 3-(2-Methoxy-5-pyridyl)-5-(2-pyridyl)-1-phenyl-1,2-dihydropyridin-2-one]	20 nM	
N#Cc1ccccc1-c1cc(-c2ccccn2)cn(-c2ccsc2)c1=O [Example 105, 3-(2-Cyanophenyl)-5-(2-pyridyl)-1-(thiophen-3-yl)-1,2-dihydropyridin-2-one]	30 nM	
COC(=O)c1cccc(-n2cc(-c3ccccn3)cc(-c3ccccc3C#N)c2=O)c1 [Example 14, 3-(2-Cyanophenyl)-5-(2-pyridyl)-1-(3-methoxycarbonylphenyl)-1,2-dihydropyridin-2-one]	100 nM	
O=c1c(-c2cc3ccccc3n2S(=O)(=O)c2ccccc2)cc(-c2ccccn2)cn1-c1ccccc1 [Example 293, 3-(1-Benzenesulfonylindol-2-yl)-1-phenyl-5-(2-pyridyl)-1,2-dihydropyridin-2-one]		3300 nM
N#Cc1ccccc1-c1cc(-c2ccccn2)cn(-c2cccc(Cl)c2)c1=O [Example 102, 3-(2-Cyanophenyl)-5-(2-pyridyl)-1-(3-chlorophenyl)-1,2-dihydropyridin-2-one]	20 nM	
N#Cc1ccccc1-c1cc(-c2ccccn2)cn(-c2cccc(O)c2)c1=O [Example 315, 3-(2-Cyanophenyl)-1-(3-hydroxyphenyl)-5-(2-pyridyl)-1,2-dihydropyridin-2-one]	80 nM	
Cc1cccc(-n2cc(-c3ccccn3)cc(-c3ccccc3C#N)c2=O)c1 [Example 103, 3-(2-Cyanophenyl)-5-(2-pyridyl)-1-(3-tolyl)-1,2-dihydropyridin-2-one]	30 nM	
